Experimental data: publication PMC6679423 (International Journal of Molecular Sciences, 2019)

Legend:
[1] = biological target: T1, FMO in human liver microsomes (Homo sapiens, UniProt P31513); assay: Effects of inhibitors on vandetanib-N-oxide formation in human liver microsomes; type: in vitro ADME; settings: inhibitor 50 μM equimolar to vandetanib (50 μM), 0.25 mg microsomal protein
T1 sequence (P31513 2-532): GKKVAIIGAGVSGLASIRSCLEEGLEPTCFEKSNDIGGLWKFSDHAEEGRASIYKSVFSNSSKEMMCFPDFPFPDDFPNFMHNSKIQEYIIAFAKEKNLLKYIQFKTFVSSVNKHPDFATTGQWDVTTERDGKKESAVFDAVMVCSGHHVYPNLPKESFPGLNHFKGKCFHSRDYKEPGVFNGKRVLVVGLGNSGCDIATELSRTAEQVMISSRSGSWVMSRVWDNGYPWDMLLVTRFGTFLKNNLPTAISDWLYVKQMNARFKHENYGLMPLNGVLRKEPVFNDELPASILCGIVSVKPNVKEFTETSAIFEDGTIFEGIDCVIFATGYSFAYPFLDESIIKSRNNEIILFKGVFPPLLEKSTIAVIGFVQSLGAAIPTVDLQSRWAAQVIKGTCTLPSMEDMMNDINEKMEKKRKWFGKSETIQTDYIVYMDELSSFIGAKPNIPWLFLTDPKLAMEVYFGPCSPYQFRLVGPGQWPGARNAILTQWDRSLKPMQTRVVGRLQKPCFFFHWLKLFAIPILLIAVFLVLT

[2] = biological target: CYP enzymes in human liver microsomes (Homo sapiens, UniProt P08684); assay: Effects of inhibitors on N-desmethylvandetanib formation in human liver microsomes; settings: inhibitor 50 μM equimolar to vandetanib (50 μM), 0.1 nmol microsomal CYP
Experimental: (§1) After the incubations, 5 µL of 1 mM phenacetine (dissolved in methanol) was added as internal standard. The reaction was stopped by extraction with dichlormethane (2 × 1 mL).
(§2) Inhibition studies in human liver microsomes were essentially conducted as reported previously.

[3] = biological target: CYP enzymes in human liver microsomes (N-desmethylvandetanib formation) (Homo sapiens, UniProt P08684); assay: as above; settings: human, pH 7.4
Experimental: as §1, §2

CYP enzymes in human liver microsomes, sequence (P08684 2-503): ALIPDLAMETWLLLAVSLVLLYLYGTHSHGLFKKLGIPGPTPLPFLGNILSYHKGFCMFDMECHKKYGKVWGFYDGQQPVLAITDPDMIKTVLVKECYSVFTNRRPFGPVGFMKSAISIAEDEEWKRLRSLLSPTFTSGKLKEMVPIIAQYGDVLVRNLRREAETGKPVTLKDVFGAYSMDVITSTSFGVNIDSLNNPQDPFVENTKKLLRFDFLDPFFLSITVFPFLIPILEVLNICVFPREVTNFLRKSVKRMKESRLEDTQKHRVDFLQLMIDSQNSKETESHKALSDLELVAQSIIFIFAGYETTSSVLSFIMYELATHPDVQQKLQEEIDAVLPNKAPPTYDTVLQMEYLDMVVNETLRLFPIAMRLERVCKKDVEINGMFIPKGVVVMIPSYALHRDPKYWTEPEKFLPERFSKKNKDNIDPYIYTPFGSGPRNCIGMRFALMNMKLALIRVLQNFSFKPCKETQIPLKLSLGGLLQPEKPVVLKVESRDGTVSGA
CYP enzymes in human liver microsomes, sequence (P16435 2-677, further chain): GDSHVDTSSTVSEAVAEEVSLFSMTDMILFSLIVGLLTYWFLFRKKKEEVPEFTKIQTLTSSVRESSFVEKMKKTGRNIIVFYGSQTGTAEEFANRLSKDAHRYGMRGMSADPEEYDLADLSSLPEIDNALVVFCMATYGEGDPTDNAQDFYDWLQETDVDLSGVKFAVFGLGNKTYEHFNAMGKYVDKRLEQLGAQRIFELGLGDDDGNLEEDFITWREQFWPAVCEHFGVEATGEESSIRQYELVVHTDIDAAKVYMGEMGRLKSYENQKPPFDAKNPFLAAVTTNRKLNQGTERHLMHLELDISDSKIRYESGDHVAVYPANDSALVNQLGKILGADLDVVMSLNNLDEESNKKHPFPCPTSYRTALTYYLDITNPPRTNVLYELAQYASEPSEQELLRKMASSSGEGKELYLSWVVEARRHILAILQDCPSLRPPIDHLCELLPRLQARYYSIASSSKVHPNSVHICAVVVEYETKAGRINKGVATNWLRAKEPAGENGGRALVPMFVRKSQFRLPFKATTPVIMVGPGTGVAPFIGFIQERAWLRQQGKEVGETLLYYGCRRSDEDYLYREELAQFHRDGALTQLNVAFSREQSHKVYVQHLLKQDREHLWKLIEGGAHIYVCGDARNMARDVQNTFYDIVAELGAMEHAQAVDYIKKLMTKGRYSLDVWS
CYP enzymes in human liver microsomes (N-desmethylvandetanib formation), sequence (P08684 2-503): as the sequence (P08684 2-503) above
CYP enzymes in human liver microsomes (N-desmethylvandetanib formation), sequence (P16435 2-677, further chain): as the sequence (P16435 2-677, further chain) above

| SMILES | % of Inhibition, Vandetanib-N-oxide Formation [1] | % of Inhibition, N-Desmethyvandetanib Formation [2] | inhibition at 20 min, 50 µM [3] [%] | % of Inhibition, N-Desmethyvandetanib Formation ([2]; listed as diamantane) | inhibition at 20 min, 500 µM [3] [%] |
| --- | --- | --- | --- | --- | --- |
| CCN(CC)C(=S)S [DDTC, diethyldithiocarbamate] | no inhibition | no inhibitory effects | 0 | – | – |
| C1C2CC3C4CC5CC(C14)C(C2)C3C5 [Diamantane, diamantane] | – | 0% | – | no inhibitory effects | – |
| Nc1ccc(S(=O)(=O)Nc2ccnn2-c2ccccc2)cc1 [Sulfaphenazole, sulfaphenazole] | – | – | 38 ± 4 | – | < 50 |
